Measured values as given in PubChem BioAssay (NCI).
Where “and” joins values, the source holds several entries; their conditions need not be identical. Equal values may be shown once.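 Grown in 96-well plates, cells were treated for 48 hours with each compound at five concentrations. Insufficient inhibition: endpoint recorded as highest concentration tested. GI50 is the concentration that inhibits growth by half. The concentration for full growth arrest is given as TGI.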 Where a SMILES comes first, the peptide text is derived from it. [ ]: non-standard residue; d: D form. The star is where a group is joined. Bn2Val = CC(C)[C@@H](C(=O)*)N(Cc1ccccc1)Cc1ccccc1; NH(3,4-diMeO-benzyl) = COc1ccc(CN*)cc1OC; NMeV = CN[C@H](C(=O)O)C(C)C; dNMeA = CN[C@H](C)C(=O)O

How the values were obtained:
Assay in all cases: growth of human tumour cells (NCI), 48 h
SF-295 CNS = test system: SF-295 CNS
UACC-257 melanoma = test system: UACC-257 melanoma
OVCAR-4 ovarian = test system: OVCAR-4 ovarian
NCI-H460 lung = test system: NCI-H460 lung
HCT-116 colon = test system: HCT-116 colon
SR leukemia = test system: SR leukemia
NCI-H226 lung = test system: NCI-H226 lung
SF-539 CNS = test system: SF-539 CNS
786-0 renal = test system: 786-0 renal
UO-31 renal = test system: UO-31 renal

SMILES	TGI (SF-295 CNS)	TGI (UACC-257 melanoma)	TGI (OVCAR-4 ovarian)	TGI (NCI-H460 lung)	TGI (HCT-116 colon)	TGI (SR leukemia) [µM]	TGI (NCI-H226 lung)	TGI (SF-539 CNS)	TGI (786-0 renal)	TGI (UO-31 renal) [µM]	GI50 (SF-295 CNS) [µM]	GI50 (UACC-257 melanoma) [µM]	GI50 (OVCAR-4 ovarian) [µM]	GI50 (NCI-H460 lung) [µM]	GI50 (UO-31 renal) [µM]	GI50 (HCT-116 colon) [µM]	GI50 (SR leukemia) [µM]	GI50 (NCI-H226 lung) [µM]	GI50 (SF-539 CNS) [µM]	GI50 (786-0 renal) [µM]
COc1cc2c(cc1OC)C1C=NC(C(=O)O)(C2)c2ccccc21 (configuration not stated)	> 100 µM	> 100 µM	> 100 µM	> 100 µM	> 100 µM	> 100	> 100 µM	> 100 µM	> 100 µM											
COc1cc2c(NCCCCCCO[N+](=O)[O-])ncnc2c(OC)c1OC	58.8 µM	36.5 µM	> 100 µM	69.8 µM	62.5 µM	45.1	45.5 µM	71.1 µM	69.2 µM	21.2										
O=S(=O)(O)C(O)/C=C/c1ccccc1 (configuration not stated)	> 100 µM	> 100 µM	> 100 µM		> 100 µM	> 100	> 100 µM		> 100 µM	> 100										
NS(=O)(=O)c1ccc(-n2nc(-c3ccc(Br)cc3)ccc2=O)cc1	> 10 µM	> 10 µM	> 10 µM	> 10 µM	> 10 µM	> 10	> 10 µM	> 10 µM	> 10 µM	> 10	> 10	> 10	> 10	> 10	> 10	> 10	8.85	> 10	> 10	> 10
CN(C)CCNC(=O)c1cccc2nc3c(Cl)cccc3nc12	> 27.1 µM	26.9 µM	27.6 µM		16.1 µM	> 100	13.5 µM	16.8 µM	> 49.1 µM	> 40.5										
CNC(=O)c1cc(Oc2ccc3c(c2)sc2nc(-c4ccc(N)cc4)cn23)ccn1	> 100 µM		> 100 µM	20.6 µM	> 100 µM		> 100 µM	> 100 µM	> 100 µM	> 100	0.104		2.49	0.289	0.467	0.211		2.01	0.324	0.433
COc1cc([C@@H]2c3cc4c(cc3[C@@H](NC(=O)c3cccc([N+](=O)[O-])c3)C3COC(=O)[C@@H]32)OCO4)cc(OC)c1O (some centres not stated)	3.99 µM	> 100 µM	> 89.5 µM	1.32 µM	> 34.8 µM		1.02 µM	1.33 µM	0.833 µM	12.2										
CCCNC(=O)OCc1c(COC(=O)NCCC)c(-c2ccc(Cl)c(Cl)c2)n2c1CCC2	12.3 µM	20.1 µM		17.2 µM	17.7 µM		7.53 µM	11.3 µM	11.4 µM	12.6										
COC(=O)c1c(OC)cccc1C(=O)O	> 100 µM	> 100 µM	> 100 µM	> 100 µM	> 100 µM		> 100 µM	> 100 µM	> 100 µM	> 100										
O=C(O)c1cc(S(=O)(=O)N=NC=C2c3ccccc3N(O)c3ccccc32)ccc1O	20.1 µM	88.2 µM	19.8 µM	33.5 µM	27.9 µM		72.4 µM		27.7 µM	49.5										
COc1ccc(CNC(=O)[C@@H](C)N(C)C(=O)[C@@H]2CCCN2C(=O)[C@H](C(C)C)N(C)C(=O)[C@@H](NC(=O)[C@H](C(C)C)N(Cc2ccccc2)Cc2ccccc2)C(C)C)cc1OC (Bn2Val-V[NMeV]P[dNMeA]-{NH(3,4-diMeO-benzyl)})	13.8 µM and 23 µM	21.8 µM and 23.5 µM	50 µM and 42.2 µM	50 µM and 37.9 µM	14.4 µM and 17.7 µM		15.3 µM and 31.3 µM	16.6 µM and 17.8 µM	21.3 µM and 28.3 µM	> 100	9.29	10.2	7.54	8.21		4.87		13.7	5.23	11.4
Cc1nc2nnc(C)n2c2c1C(=O)Nc1ccccc1N2	> 100 µM	> 100 µM		> 100 µM	> 100 µM	> 100	> 100 µM	> 100 µM	> 100 µM	> 100										
COc1ccc(CNC(=O)COc2ccc(/C=N/Nc3nc4ccccc4s3)cc2)cc1	11.2 µM	> 100 µM	5 µM	7.3 µM	6.76 µM	> 100		4.18 µM	5.9 µM		3.25	4.2	1.56	2.65		2.25	3.05		1.65	2.37
CC1CCC[P+](Cc2ccccc2)(c2ccccc2)CC1 (configuration not stated)			90.4 µM	> 100 µM				> 100 µM	> 100 µM	> 100										
CC1=CCCC(OC(N)=O)C1 (configuration not stated)	> 100 µM	> 100 µM	> 100 µM	> 100 µM	> 100 µM			> 100 µM	> 100 µM	> 100										
CCC1CCC2CCCC(C)N12 (configuration not stated)	> 100 µM	> 100 µM	> 100 µM		> 100 µM	> 100	> 100 µM	> 100 µM	> 100 µM	> 100										
CN(C)c1ccc2c(c1)oc(=O)c1ccccc12	48.2 µM	28.3 µM	28.2 µM	58 µM	25.9 µM	21.5	31.9 µM	35.5 µM	26.5 µM											
NNC(=O)c1cnn(-c2ccnc3c(C(F)(F)F)cccc23)c1N	> 100 µM	> 100 µM	> 100 µM	> 100 µM	> 100 µM		> 100 µM	> 100 µM	> 100 µM	> 100	> 100	> 100	> 100	> 100	> 100	> 100		> 100	> 100	> 100
COc1ccc(N=Cc2cc(OC)c(OC)c(OC)c2)cc1		> 100 µM	> 100 µM	> 100 µM	> 100 µM			> 100 µM	> 100 µM	> 100										
O=C1CC[C@H]2CNC(=O)C[C@H]2C1	> 100 µM	> 100 µM	> 100 µM	> 100 µM	> 100 µM			> 100 µM	> 100 µM	> 100										
